The values that follow come from patent US20150174144A1, “TETRACYCLINE COMPOUNDS FOR TREATING NEURODEGENERATIVE DISORDERS” (PARATEK PHARMACEUTICALS, INC., priority 2012, published 2015).

The subject of data set [1] is animal models of MS and neuroprotection. As to the kind of experiment: Accepted animal models of MS and neuroprotection (Table 2). On the set-up: concentration or dose not given beside the values. The following applies: in vivo.
In the next data set the test system is MOG peptide-induced EAE. As to the kind of experiment: MOG peptide-induced EAE in mice. The format is in vivo, C57BL/6 mouse. The following applies: mouse, i.p. daily from day 10. The text has this:
The inhibitory activity of Compound 1 was characterized in both mouse and rat models of EAE. Mice were immunized s.c. with myelin oligodendrocyte glycoprotein (MOG) peptide 35-55 in CFA and later injected i.v. with Pertussis toxin. Mice were randomized at day 10 and given compound i.p. Compounds were subsequently administered daily and the animals assessed for clinical score. Mice were scored as follows: 0=no disease; 1=limp tail; 2=paralysis of one or both hind limbs; 4=paralysis of both hind- and forelimbs. […] Rats were dosed daily i.p. with compound starting day 9. Rats were scored daily and cumulative scores were determined by adding the average daily scores over the experimental period. […] The average daily scores+/−SEM and the cumulative average scores are shown. Cumulative average scores were determined by adding the average daily scores over the experimental period.

Data set [2] has as its system cuprizone-induced demyelination. As to the kind of experiment: Mouse model of cuprizone-induced demyelination. The format is in vivo, C57BL/6 female mice. As for the experimental part:
Compound 1 was tested in the mouse model of cuprizone-induced demyelination to determine the protective effects of Compound 1. The general protocol for cuprizone model demyelination is as follows:
C57BL/6 female mice at 7-8 weeks old were fed a cuprizone diet (7012, 0.2% cuprizone mixed in standard pellet rodent chow purchased from Harlan Teklad, Indianapolis, Ind., USA) for 5 weeks. The cuprizone food was changed every two days and given ad libitum along with water. An additional group of mice was fed normal chow for 5 weeks to serve as a no cuprizone control.
Animals were dosed intraperitoneally (i.p.) once daily based on body weight with Compound 1 (25 mg/kg, 10 mL/kg in saline), minocycline positive control (25 mg/kg, 10 mL/kg in saline) or saline sham starting on the day of cuprizone diet initiation (day 0) and continuing until day of harvest.
At 3, 4, and 5 weeks of cuprizone feeding, ten mice from each group were euthanized by CO2 asphyxiation and decapitation and the brains were harvested and fixed in 10% buffered neutral formalin.
Postfixed brains were paraffin embedded and 8-12 μm serial sections of the brain between the septostriatal and rostral diencephalon were prepared for luxol fast blue periodic acid-Schiff base (LFB-PAS) staining (demyelination). Both medial and lateral demyelination of the corpus callosum was determined.
Demyelination scores for the medial corpus callosum ranged from 0 to 4 (0=fully myelinated, 1=<⅓ demyelination in the center of the medial corpus callosum, 2=<⅔ demyelination in the center of the corpus callosum, 3=no myelin in the center of corpus callosum and 4=demyelination extending to the arch of the medial corpus callosum). Demyelination in the lateral corpus callosum was scored on weeks 4 and 5 and ranged from 0 to 3 (0=normal myelination and 3=complete demyelination). Demyelination was scored 2-3 times for at least 2 brain sections.
Axon loss in the medial corpus callosum was determined on additional serial sections of brain using Bielschowsky silver staining. Axon loss in the medial corpus callosum was scored from 0-4 (0=normal number of axons to 4=complete axon loss) at 3, 4 and 5 weeks. Slides were scored by two technicians who were blinded to the treatment groups.

In data set [3] the test system is LPS-induced TNFα production by RAW 264.7 macrophages. As to the kind of experiment: TNFα production assay, LPS-activated RAW 264.7 macrophages. The format is cell-based. The following applies: Mus musculus, RAW264.7. Here is the method: Compound 1 was tested to determine specific anti-inflammatory characteristics. In vitro assays to assess the inhibition of substrate cleavage by matrix metalloproteinase 9 (MMP-9) and the inhibition of TNFα production by lipopolysaccharide (LPS)-activated macrophages were performed. MMP-9 activity was determined by fluorescence after incubation of recombinant MMP-9 with fluorescein-conjugated DQ gelatin for 90 min. TNFα production was determined by incubation of 10 ng/ml LPS with RAW264.7 macrophage cells for 24 h, followed by quantitation of TNFα in culture supernatant by ELISA.
The RAW 264.7 mouse macrophage cell line was grown to confluence in DMEM medium containing 10% fetal bovine serum (FBS). Cells were harvested into single-cell suspensions, seeded into 96-well plates at 1-2×10^5 cells/well (200 μL volume) and incubated (5% CO2, 37° C.) overnight. Compounds were added to the cells at final concentrations ranging from 50 to 1 μM and pre-incubated for 30 min. Lipopolysaccharide (LPS) was added to the cells at a final concentration of 10 ng/ml. After incubation for 20 hr, culture supernatants were harvested and transferred to a new 96-well plate. Levels of LPS-induced TNFα in the supernatants were quantified by ELISA (R & D Systems) with supernatants from unstimulated cells serving as a negative control.

For data set [4], the system named is ferric iron-induced lipid peroxidation among rat brain tissue. As to the kind of experiment: Ferric iron-induced lipid peroxidation in rat brain tissue. Type of data set: biochemical. As for the experimental part:
Tetracycline compounds were tested in an in vitro assay of ferric iron-induced lipid peroxidation among rat brain tissue.

Another data set can be described thus: Genotoxicity. As to conditions: pre-clinical safety studies.
A further data set relates to CYP450. The experiment in a line: CYP450 inhibition or induction. Type of data set: in vitro ADME. The following applies: pre-clinical ADME studies.
Data set [5] can be described thus: Preliminary embryofetal DRF study in rats. The following applies: high dose of 250 mg/kg. The format is in vivo.
A further data set has as its system E. coli. As to the kind of experiment: Antibacterial activity, E. coli MIC. The format is cell-based. As to conditions: Escherichia coli; Table 8.
Data set [6] has as its system focal cerebral ischemia (temporary MCA occlusion). The experiment in a line: Rat stroke model, 90 min temporary MCA occlusion. Type of data set: in vivo, Male Wistar rats. As to conditions: for Neurological score / Infarct volume (Means ± SD): temporary; for Infarct volume (Means ± SD): 24 hr after MCAO; for Effect on infarct volume: temporary occlusion.
Setting [7] is: Lateral Corpus Callosum, Week 4, 25 mg/kg/d i.p.
Setting [8] is: Lateral Corpus Callosum, Week 5, 25 mg/kg/d i.p.
Where [9] appears, read: Medial Corpus Callosum, Week 3, 25 mg/kg/d i.p.
Where [10] appears, read: Medial Corpus Callosum, Week 4, 25 mg/kg/d i.p.
Where [11] appears, read: Medial Corpus Callosum, Week 5, 25 mg/kg/d i.p.
Where [12] appears, read: 10 ng/ml LPS, 20 hr, read-out: TNFα Production (RAW264.7) IC50.
Setting [13] is: Table 4, unit inferred, read-out: TNFα production (RAW264.7).
[14] abbreviates: 20 mg/kg i.v. at 30 min, 6 hr after MCAO.
[15] abbreviates: 40 mg/kg i.v. at 60 min, 6 hr after MCAO.
Where [16] appears, read: 40 mg/kg i.v. at 3 hr, 8 hr after MCAO.

Structures are written as SMILES. Converted amounts (≈) assume the structure as drawn. “And” between values parts separate entries of the source, which are not always exact repeats. Equal entries are not always repeated. Where two headings read alike, the source gives them in different places. Marks after values point to notes of the source that are not given here. A value given as a limit tells only on which side of the number the result lay.

As a reminder, the MIC is the least concentration at which growth counts as inhibited. Take `CCc1cc(N(C)C)c2c(c1O)C(=O)C1=C(O)[C@]3(O)C(=O)C(C(N)=O)=C(O)[C@@H](N(C)C)[C@@H]3C[C@@H]1C2` [Compound 1]: the “% Inhibition Axon Loss” value in data set [1] is 70%; in [2] (setting [9]) it was 62% and 66* %; in data set [2] (setting [10]), 41%; in [2] (setting [11]) it was 3%. In addition, the “% Inhibition Clinical Score” value in [1] amounted to 65%. Besides, the “% Inhibition Demyelination” value is given as 69% in [1]; 62% in [2] (setting [7]); 29% in data set [2] (setting [8]); 70% in [2] (setting [9]); 13% in data set [2] (setting [10]); −11% in data set [2] (setting [11]). The “% Inhibition Inflammation” value in [1] is listed as 74%. Further, the “Effect on clinical course of EAE (onset, maximum disease severity)” value with MOG peptide-induced EAE is “both delayed the onset and inhibited the maximum disease severity more potently than minocycline”. Besides, the IC50 in data set [3] (setting [12]) and in [3] (setting [13]) was 10.9 ± 1.6 µM in each case. Also, the “Lipid peroxidation (% of Control)” value in data set [4] (1.0 μM) is 92 % of Control; in data set [4] (10 μM) it was 68 % of Control; in [4] (100 μM), 56 % of Control. The Effects in genotoxicity entry in the data set “Genotoxicity” was “no significant effects”. For the same compound, in the data set with CYP450, the “Effects in CYP450 inhibition or induction” value is listed as “no significant effects”. Further, the “Effects on fetal body weight” value in [5] is given as “only slight effects on fetal body weight”. The MIC in the data set on E. coli is more than 64 mg/L. Also, the Neurological score came to 1.5 ± 0.5 in data set [6] (setting [14]), 1.3 ± 0.5 in [6] (setting [15]) and 1.4 ± 0.5 in [6] (setting [16]). Also, the “Infarct volume (Means ± SD)” value in [6] (setting [14]) was determined as 139.2 ± 32.2 mm3; in data set [6] (setting [15]) it was 125.9 ± 49.9 mm3; in data set [6] (setting [16]), 172.8 ± 45.3 mm3. Also, the “Effect on infarct volume” value in data set [6] (treatment initiated three hours post occlusion) is reported as “did not demonstrate an ability to reduce infarct volume”; in data set [6] (treatment started at 30 or 60 min after MCA occlusion) it was “statistically significant reductions in infarct volume”.

Turning to `CN(C)c1ccc(O)c2c1C[C@H]1C[C@H]3[C@H](N(C)C)C(O)=C(C(N)=O)C(=O)[C@@]3(O)C(O)=C1C2=O` [Minocycline, minocycline, reference compound], the “% Inhibition Axon Loss” value is on record as 38% in [1], 29% in data set [2] (setting [9]), 30% in data set [2] (setting [10]) and −10% in [2] (setting [11]). Moreover, in [1], the “% Inhibition Clinical Score” value is 40%. In addition, the “% Inhibition Demyelination” value in data set [1] is given as 34%; in data set [2] (setting [7]), 63* %; in data set [2] (Lateral Corpus Callosum, Week 4, 25 mg/kg/d i.p., listed as minocycline), 63%; in [2] (setting [8]), 25%; in data set [2] (setting [9]) it was 31%; in data set [2] (setting [10]), 17%. For the same compound, the “% Inhibition Demyelination” value in data set [2] (setting [11]) worked out at 12%. In addition, the “% Inhibition Inflammation” value in data set [1] came out at 43%. In addition, the IC50 in [3] (setting [12]) and in [3] (setting [13]) was 47 µM each time. Moreover, in the data set with E. coli, inhibition of growth (MIC) required 1 mg/L (≈ 2.19 µM).
